What was measured:
[1] = PK assay: half life in the lung after intra-tracheal administration; format: in vivo; conditions: rat, other: intra-tracheal, 10 ug/kg; male Sprague-Dawley rats, single intra-tracheal dose 10 μg/Kg, lung homogenate; free base; read-out: terminal lung t1/2 (converted)
Description: Comparison of the Half Lives in the Lung of the Compound of the Invention and the Compound of Example 18 of WO2007/129060
Test material was formulated at 20 μg/mL in 0.2% Tween 80 in saline. Solutions were sonicated and warmed in a water bath at 40° C. prior to dosing. Male Sprague-Dawley rats received a single intra-tracheal administration of the test material via a Penn-Century dosing needle at the nominal dose level of 10 μg/Kg. After dosing five rats from each group were terminally anaesthetized with sodium pentobarbitone at 1, 2, 4, 8, 24, 72 and 96 hours for compound (IA) (free base) and 1, 4, 8, 24, 72, 96, 168, 264 and 336 for compound (II) (free base) post dose. Blood was sampled from the tail vein, following which the chest was opened, the animal exanguinated by perfusion and the lungs removed and snap frozen. After collection the blood samples were centrifuged (10000×g, 2 min at 4° C.). Plasma was removed and both stored frozen at −20° C. Rat lungs were homogenised in water (on ice) to give a ratio of 1 part lung:2 parts water (w/v). A 100 μL aliquot of each homogenate was extracted by addition of 200 μL acetonitrile containing an analytical internal standard. […]
Test material was analysed on a triple quadrupole mass spectrometer (AB Sciex API 3000) fitted with LC pump and autosampler (Reliance). Test material was detected in positive ion mode Turbo Ion Spray. […]

human leukocyte elastase = target: T1, human leukocyte elastase (Homo sapiens, UniProt P08246); assay: Enzyme inhibition assay using fluorescent peptide substrate; format: biochemical; conditions: MeO-Suc-Ala-Ala-Pro-ValAMC substrate 100 μM, free base, means of two independent experiments
T1 construct: purchased Sigma E8140
T1 sequence (P08246 30-247 limits assumed): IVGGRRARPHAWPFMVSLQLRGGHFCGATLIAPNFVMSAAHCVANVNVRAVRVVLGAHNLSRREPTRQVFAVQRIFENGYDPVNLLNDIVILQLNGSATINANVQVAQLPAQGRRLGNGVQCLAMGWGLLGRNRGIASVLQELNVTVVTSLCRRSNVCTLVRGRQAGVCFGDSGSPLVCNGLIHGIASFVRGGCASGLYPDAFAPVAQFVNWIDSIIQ
Description: Using Fluorescent Peptide Substrate
Assays were performed in 96-well plates at a total assay volume of 100 μl. The final concentration of the enzyme (human leukocyte elastase, Sigma E8140) was 0.00036 units/well. A peptide substrate (MeO-Suc-Ala-Ala-Pro-ValAMC (SEQ ID NO: 1), Calbiochem #324745) was used, at the final concentration of 100 μM. The final concentration of DMSO was 1% in the assay buffer (0.05M Tris.HCl, pH 7.5, 0.1M NaCl; 0.1M CaCl2; 0.0005% brij-35).
The enzymatic reaction was started by adding the enzyme. The enzymatic reaction was performed at RT and after 30 mins stopped by adding 50 μl soybean trypsin inhibitor (Sigma T-9003) at a final concentration of 50 μg/well. Fluorescence was read on the FLEXstation (Molecular Devices) using 380 nm excitation and 460 nm emission filters. […] The results are means of two independent experiments, each performed in duplicate.
The results are means of two independent experiments, each performed in duplicate.

[2] = system: HNE Induced Lung Haemorrhage in the Rat; assay: HNE induced lung haemorrhage in the rat; format: in vivo; conditions: 100 μg/kg i.t., 6 hours prior to HNE, free base, statistically significant
From the text: HNE Induced Lung Haemorrhage in the Rat
Instillation of human neutrophil elastase (HNE) into rat lung causes acute lung damage. The extent of this injury can be assessed by measuring lung haemorrhage.
Male Sprague Dawley rats (175-220 g) were obtained from Harlan UK Ltd., full barrier-bred and certified free from specified micro-organisms on receipt. Animals were weighed and randomly assigned to treatment groups (7-12 animals to per group).
The vehicle used was 1% DMSO/Saline. Inhibitors were dissolved in 1% DMSO before the addition of 0.9% saline.
Animals in each study used to determine the efficacy of the elastase inhibitors delivered locally to the lung by a variety of routes. […]
Once defrosted 100 μl of each lysed cell suspension was placed into a separate well of a 96 well flat bottomed plate. […] The OD of the contents of each well was measured at 415 nm using a spectramax 250 (Molecular devices). […]
The amount of blood in each experimental sample was calculated by comparison to the standard curve. Data were then analysed as below: • 1) The mean OD for duplicates was calculated • 2) The value for the blank was subtracted from the value for all other samples • 3) Data were assessed to evaluate the normality of distribution.

half-life [1] [h]	IC50 (human leukocyte elastase) [nM]	Structure (SMILES)	reduction in haemorrhage relative to control [2] [%]
37	8.4	N#Cc1ccc([C@H]2NC(=O)N(c3cccc(C(F)(F)F)c3)C3=C2C(=O)N(CCCNCCCN2CC4=C(C2=O)[C@@H](c2ccc(C#N)nc2)NC(=O)N4c2cccc(C(F)(F)F)c2)C3)cn1 [Compound (IA)]	95
94	2.1	N#Cc1ccc([C@H]2NC(=O)N(c3cccc(C(F)(F)F)c3)C3=C2C(=O)N(CCCNCCCN2CC4=C(C2=O)[C@@H](c2ccc(C#N)cc2)NC(=O)N4c2cccc(C(F)(F)F)c2)C3)cc1 [Compound (II)]	88

Reference: patent US8455505B2, “Pyrrolopyrimidinedione and its therapeutic use” (Chiesi Farmaceutici S.p.A., priority 2009, dated 2013)
